Reference: ChEMBL document CHEMBL1201862, “PubChem BioAssay data set” (2004)
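These data come from cells grown in 96-well plates and exposed to compound for 48 hours at five concentrations. Abbreviation: GI50, concentration required for 50% inhibition of growth.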 Calls of active or inactive are those of the source. Rule as the data show it: active = GI50 up to about 1.1 µM and inactive = higher.

Key:
Assay in all cases: NCI anticancer screen, dose series, 48 h
PC-3 = system: PC-3
NCI/ADR-RES = system: NCI/ADR-RES
UACC-62 = system: UACC-62
CAKI-1 = system: CAKI-1
BT-549 = system: BT-549
NCI-H226 = system: NCI-H226
LOX IMVI = system: LOX IMVI
OVCAR-3 = system: OVCAR-3
NCI-H522 = system: NCI-H522
SNB-75 = system: SNB-75
MDA-MB-435 = system: MDA-MB-435
HL-60 = system: HL-60
A498 = system: A498
T47D = system: T47D
SNB-19 = system: SNB-19
A549 = system: A549
SK-MEL-5 = system: SK-MEL-5
COLO 205 = system: COLO 205
Malme-3M = system: Malme-3M

Compound	GI50 (PC-3)	GI50 (NCI/ADR-RES)	GI50 (UACC-62)	GI50 (CAKI-1)	GI50 (BT-549)	GI50 (NCI-H226)	GI50 (LOX IMVI)	GI50 (OVCAR-3)	GI50 (NCI-H522)	GI50 (SNB-75)	GI50 (MDA-MB-435)	GI50 (HL-60)	GI50 (A498)	GI50 (T47D)	GI50 (SNB-19)	GI50 (A549)	GI50 (SK-MEL-5)	GI50 (COLO 205)	GI50 (Malme-3M)
O=C(O)CC1OCC=C2CN3CCC45c6ccccc6NC4C1C2CC35 (stereo not given)	> 100 µM (inactive)	> 100 µM (inactive)	> 100 µM (inactive)	> 100 µM (inactive)	> 100 µM (inactive)	> 100 µM (inactive)	> 100 µM (inactive)	> 100 µM (inactive)	> 100 µM (inactive)	77.1 µM (inactive)	> 100 µM (inactive)	> 100 µM (inactive)	> 100 µM (inactive)	> 100 µM (inactive)	> 100 µM (inactive)	> 100 µM (inactive)	> 100 µM (inactive)	> 100 µM (inactive)	–
CCCCc1ccc(Nc2nc(S)c3[nH]cnc3n2)cc1	29.7 µM (inactive)	13.4 µM (inactive)	18.5 µM (inactive)	34.5 µM (inactive)	17.4 µM (inactive)	16.3 µM (inactive)	17.5 µM (inactive)	16.1 µM (inactive)	10.9 µM (inactive)	–	17.1 µM (inactive)	27.9 µM (inactive)	16.6 µM (inactive)	15.6 µM (inactive)	22.8 µM (inactive)	36.8 µM (inactive)	12.5 µM (inactive)	16.6 µM (inactive)	22 µM (inactive)
CCC1OC(=O)CC(O)C(C)C(OC2OC(C)CC(N(C)C)C2O)C(CC=O)CC(C)C(=O)/C=C/C2(C)OC2C1C (stereo not given)	26.6 µM (inactive)	31.2 µM (inactive)	14.1 µM (inactive)	31.5 µM (inactive)	15.1 µM (inactive)	16.3 µM (inactive)	17.3 µM (inactive)	22.8 µM (inactive)	15 µM (inactive)	19.3 µM (inactive)	16.8 µM (inactive)	12.8 µM (inactive)	25.9 µM (inactive)	19.9 µM (inactive)	16.9 µM (inactive)	49.4 µM (inactive)	15.2 µM (inactive)	16.9 µM (inactive)	21.7 µM (inactive)
CC1(C)OC(CP(c2ccccc2)c2ccccc2)C(CP(c2ccccc2)c2ccccc2)O1 (stereo not given)	0.0548 µM (active)	> 100 µM (inactive)	1.97 µM (inactive)	2.92 µM (inactive)	2.93 µM (inactive)	–	0.224 µM (active)	0.0535 µM (active)	0.298 µM (active)	1.36 µM (inactive)	2.16 µM (inactive)	0.0443 µM (active)	3.39 µM (inactive)	0.345 µM (active)	0.601 µM (active)	0.27 µM (active)	2.13 µM (inactive)	0.0792 µM (active)	1.99 µM (inactive)
COC(=O)c1nn2ccc3ccccc3c2c1C(=O)OC	47.8 µM (inactive)	62.7 µM (inactive)	36.6 µM (inactive)	48.9 µM (inactive)	63.5 µM (inactive)	> 100 µM (inactive)	83.6 µM (inactive)	–	> 100 µM (inactive)	72.8 µM (inactive)	76.7 µM (inactive)	21.3 µM (inactive)	22.5 µM (inactive)	> 100 µM (inactive)	> 100 µM (inactive)	> 100 µM (inactive)	37 µM (inactive)	> 100 µM (inactive)	> 100 µM (inactive)
N#Cc1c(-c2ccc([N+](=O)[O-])cc2)cc(-c2ccc(Nc3ccnc4cc(Cl)ccc34)cc2)nc1N	6.49 µM (inactive)	4.12 µM (inactive)	26.7 µM (inactive)	20.9 µM (inactive)	51.1 µM (inactive)	> 72.1 µM (inactive)	1.45 µM (inactive)	6.67 µM (inactive)	3.85 µM (inactive)	11.4 µM (inactive)	3.35 µM (inactive)	12.4 µM (inactive)	26.2 µM (inactive)	4.81 µM (inactive)	25.2 µM (inactive)	3.98 µM (inactive)	25.9 µM (inactive)	25.5 µM (inactive)	21.5 µM (inactive)
CCCCNC(=S)Nc1nc(C(=O)NNC(=O)c2ccccc2)cs1	15.5 µM (inactive)	16.9 µM (inactive)	17.6 µM (inactive)	20.9 µM (inactive)	18.1 µM (inactive)	21.3 µM (inactive)	10.1 µM (inactive)	6.14 µM (inactive)	19.3 µM (inactive)	32.6 µM (inactive)	19.7 µM (inactive)	96.6 µM (inactive)	30.3 µM (inactive)	11.5 µM (inactive)	–	20.4 µM (inactive)	10.8 µM (inactive)	13.3 µM (inactive)	18.7 µM (inactive)
O=C(Nc1ccccc1)c1cc(S(=O)(=O)N2CCNC2=O)c(S)cc1Cl	> 100 µM (inactive)	> 100 µM (inactive)	> 100 µM (inactive)	36.6 µM (inactive)	> 100 µM (inactive)	–	> 100 µM (inactive)	> 100 µM (inactive)	23.2 µM (inactive)	> 100 µM (inactive)	> 100 µM (inactive)	> 100 µM (inactive)	> 100 µM (inactive)	> 100 µM (inactive)	> 100 µM (inactive)	> 100 µM (inactive)	> 100 µM (inactive)	> 100 µM (inactive)	–
COc1cc(/C=C2\N=C(c3ccccc3)N(c3ccc4c(c3)Sc3cc(N5C(=O)/C(=C/c6cc(OC)c(OC)c(OC)c6)N=C5c5ccccc5)ccc3N4)C2=O)cc(OC)c1OC	19.6 µM (inactive)	31 µM (inactive)	16.9 µM (inactive)	18.5 µM (inactive)	23.4 µM (inactive)	–	22.4 µM (inactive)	20.8 µM (inactive)	17.1 µM (inactive)	24.7 µM (inactive)	18 µM (inactive)	26.9 µM (inactive)	20.7 µM (inactive)	25.2 µM (inactive)	21.2 µM (inactive)	37.6 µM (inactive)	16.5 µM (inactive)	20.9 µM (inactive)	19.5 µM (inactive)
Cc1csc(CP(=O)(OC(C)C)OC(C)C)n1	> 100 µM (inactive)	> 100 µM (inactive)	–	> 100 µM (inactive)	> 100 µM (inactive)	> 100 µM (inactive)	> 100 µM (inactive)	> 100 µM (inactive)	> 100 µM (inactive)	> 100 µM (inactive)	> 100 µM (inactive)	> 100 µM (inactive)	> 100 µM (inactive)	> 100 µM (inactive)	> 100 µM (inactive)	> 100 µM (inactive)	> 100 µM (inactive)	> 100 µM (inactive)	> 100 µM (inactive)
CC(=O)[C@@H](C)C(=O)N1C(=O)OC[C@@]12[C@@H]1CC[C@@H](C1)C2(C)C	> 100 µM (inactive)	> 100 µM (inactive)	> 100 µM (inactive)	71.8 µM (inactive)	> 100 µM (inactive)	> 100 µM (inactive)	> 100 µM (inactive)	–	> 100 µM (inactive)	> 100 µM (inactive)	> 100 µM (inactive)	> 100 µM (inactive)	> 100 µM (inactive)	> 100 µM (inactive)	> 100 µM (inactive)	> 100 µM (inactive)	> 100 µM (inactive)	> 100 µM (inactive)	> 100 µM (inactive)
COC(=O)C1(C(=O)OC)N=C(C)OC1C(C)C (stereo not given)	> 100 µM (inactive)	> 100 µM (inactive)	–	> 100 µM (inactive)	> 100 µM (inactive)	> 100 µM (inactive)	> 100 µM (inactive)	> 100 µM (inactive)	–	> 100 µM (inactive)	> 100 µM (inactive)	37.5 µM (inactive)	> 100 µM (inactive)	> 100 µM (inactive)	> 100 µM (inactive)	> 100 µM (inactive)	> 100 µM (inactive)	> 100 µM (inactive)	–
O=C(CSc1nnc(-c2ccccn2)s1)N/N=C/c1ccccc1	> 100 µM (inactive)	> 100 µM (inactive)	> 100 µM (inactive)	> 100 µM (inactive)	> 100 µM (inactive)	> 100 µM (inactive)	> 100 µM (inactive)	> 100 µM (inactive)	> 100 µM (inactive)	3.03 µM (inactive)	> 100 µM (inactive)	–	> 100 µM (inactive)	46.8 µM (inactive)	> 100 µM (inactive)	> 100 µM (inactive)	> 100 µM (inactive)	> 100 µM (inactive)	97.7 µM (inactive)
COc1cc2c(cc1C[N+](C)(C)CSc1ccccc1)-c1ccccc1CC2	2.61 µM (inactive)	37.5 µM (inactive)	2.52 µM (inactive)	13.5 µM (inactive)	3.89 µM (inactive)	9.02 µM (inactive)	4 µM (inactive)	2.29 µM (inactive)	2.01 µM (inactive)	1.19 µM (inactive)	3.18 µM (inactive)	0.721 µM (active)	18.5 µM (inactive)	2.91 µM (inactive)	4.28 µM (inactive)	19 µM (inactive)	1.17 µM (inactive)	1.75 µM (inactive)	1.71 µM (inactive)
c1cc(-c2sc(-c3ccncc3)c(-c3ccncc3)c2-c2ccncc2)ccn1	19.8 µM (inactive)	22.9 µM (inactive)	14.1 µM (inactive)	36.9 µM (inactive)	18.7 µM (inactive)	14.6 µM (inactive)	13.6 µM (inactive)	16.9 µM (inactive)	15.5 µM (inactive)	14 µM (inactive)	14.6 µM (inactive)	–	12.5 µM (inactive)	32.4 µM (inactive)	18.4 µM (inactive)	17.2 µM (inactive)	14.7 µM (inactive)	12.8 µM (inactive)	17.7 µM (inactive)
